{"source": "ChEMBL document CHEMBL4261572", "about": "“Design, synthesis and biological evaluation of tacrine-1,2,3-triazole derivatives as potent cholinesterase inhibitors” (Medchemcomm, 2018)", "key": {"Acetylcholinesterase [1]": {"target": "Acetylcholinesterase (Electrophorus electricus, UniProt O42275)", "sequence (O42275 whole entry)": "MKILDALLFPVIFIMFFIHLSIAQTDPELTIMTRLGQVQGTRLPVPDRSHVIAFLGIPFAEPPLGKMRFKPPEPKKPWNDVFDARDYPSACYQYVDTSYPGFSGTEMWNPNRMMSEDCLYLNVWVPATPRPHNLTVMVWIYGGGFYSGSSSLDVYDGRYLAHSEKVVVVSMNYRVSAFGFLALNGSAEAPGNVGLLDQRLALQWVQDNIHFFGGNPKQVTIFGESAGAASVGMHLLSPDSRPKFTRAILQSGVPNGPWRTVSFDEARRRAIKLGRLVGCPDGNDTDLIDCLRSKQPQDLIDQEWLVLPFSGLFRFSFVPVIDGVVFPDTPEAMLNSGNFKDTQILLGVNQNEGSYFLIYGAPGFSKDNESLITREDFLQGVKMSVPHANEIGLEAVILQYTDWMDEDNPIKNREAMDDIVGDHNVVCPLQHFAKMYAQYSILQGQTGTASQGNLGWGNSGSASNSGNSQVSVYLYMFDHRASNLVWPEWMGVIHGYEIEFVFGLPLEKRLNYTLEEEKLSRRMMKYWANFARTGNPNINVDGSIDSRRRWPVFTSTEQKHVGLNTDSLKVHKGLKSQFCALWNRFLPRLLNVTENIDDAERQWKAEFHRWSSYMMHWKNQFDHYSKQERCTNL", "test": "Inhibition of electric eel AChE after 15 mins by DTNB reagent based assay"}, "Cholinesterase [2]": {"target": "Cholinesterase (Equus caballus, UniProt P81908)", "sequence (P81908 whole entry)": "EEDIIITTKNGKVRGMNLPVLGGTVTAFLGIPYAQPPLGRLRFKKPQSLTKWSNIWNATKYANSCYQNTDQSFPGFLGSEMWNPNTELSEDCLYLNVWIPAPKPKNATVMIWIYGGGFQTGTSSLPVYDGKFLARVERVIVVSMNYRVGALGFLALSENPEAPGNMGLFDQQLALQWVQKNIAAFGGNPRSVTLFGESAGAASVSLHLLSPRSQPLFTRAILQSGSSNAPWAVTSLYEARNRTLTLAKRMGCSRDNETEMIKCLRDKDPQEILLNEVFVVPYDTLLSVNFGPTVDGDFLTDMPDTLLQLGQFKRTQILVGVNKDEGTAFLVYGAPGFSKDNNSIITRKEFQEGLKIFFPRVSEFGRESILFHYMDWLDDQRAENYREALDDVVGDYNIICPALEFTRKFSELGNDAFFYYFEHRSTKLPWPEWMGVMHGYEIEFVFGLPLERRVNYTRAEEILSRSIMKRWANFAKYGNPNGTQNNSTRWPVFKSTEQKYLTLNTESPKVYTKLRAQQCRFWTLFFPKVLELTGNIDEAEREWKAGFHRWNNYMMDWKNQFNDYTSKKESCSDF", "test": "Inhibition of horse serum BChE after 15 mins by DTNB reagent based assay"}, "Acetylcholinesterase [3]": {"target": "Acetylcholinesterase (Homo sapiens, UniProt P22303)", "sequence (P22303 whole entry)": "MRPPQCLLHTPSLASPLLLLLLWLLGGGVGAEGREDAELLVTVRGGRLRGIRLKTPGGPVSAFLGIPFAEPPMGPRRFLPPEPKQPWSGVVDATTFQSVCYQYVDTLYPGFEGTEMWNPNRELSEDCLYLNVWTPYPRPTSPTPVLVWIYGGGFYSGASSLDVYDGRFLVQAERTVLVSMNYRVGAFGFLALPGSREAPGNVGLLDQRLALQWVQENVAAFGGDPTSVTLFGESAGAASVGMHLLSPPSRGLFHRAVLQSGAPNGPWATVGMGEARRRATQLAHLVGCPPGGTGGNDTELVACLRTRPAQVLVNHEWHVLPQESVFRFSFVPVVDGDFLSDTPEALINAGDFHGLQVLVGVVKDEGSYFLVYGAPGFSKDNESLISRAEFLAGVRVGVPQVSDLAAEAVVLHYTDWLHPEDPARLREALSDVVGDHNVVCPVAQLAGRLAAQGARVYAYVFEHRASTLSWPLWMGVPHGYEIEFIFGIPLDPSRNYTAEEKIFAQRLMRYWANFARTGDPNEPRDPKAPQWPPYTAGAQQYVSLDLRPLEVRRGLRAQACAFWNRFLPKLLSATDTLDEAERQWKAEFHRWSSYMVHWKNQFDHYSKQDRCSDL", "test": "Inhibition of AChE (unknown origin)"}, "Cholinesterase [4]": {"target": "Cholinesterase (Homo sapiens, UniProt P06276)", "sequence (P06276 whole entry)": "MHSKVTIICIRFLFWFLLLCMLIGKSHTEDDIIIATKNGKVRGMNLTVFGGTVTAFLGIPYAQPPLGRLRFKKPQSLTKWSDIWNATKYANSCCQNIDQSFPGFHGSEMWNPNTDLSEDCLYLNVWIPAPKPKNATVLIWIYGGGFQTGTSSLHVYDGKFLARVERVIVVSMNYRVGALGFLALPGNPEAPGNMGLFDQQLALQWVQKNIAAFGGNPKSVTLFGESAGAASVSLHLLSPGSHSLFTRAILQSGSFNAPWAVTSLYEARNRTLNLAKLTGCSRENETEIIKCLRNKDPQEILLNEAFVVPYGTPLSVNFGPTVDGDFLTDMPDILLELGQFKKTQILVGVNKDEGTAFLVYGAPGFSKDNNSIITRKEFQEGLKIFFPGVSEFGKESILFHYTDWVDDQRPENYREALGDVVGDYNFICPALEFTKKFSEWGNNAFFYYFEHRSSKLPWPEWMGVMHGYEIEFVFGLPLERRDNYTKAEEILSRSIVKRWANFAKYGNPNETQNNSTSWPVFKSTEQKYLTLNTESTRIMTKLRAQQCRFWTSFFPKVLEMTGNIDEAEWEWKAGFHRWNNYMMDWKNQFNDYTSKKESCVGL", "test": "Inhibition of BChE (unknown origin)"}, "[5]": {"test": "Selectivity ratio of compound effect for inhibition of horse serum BChE to compound effect for inhibition of electric eel AChE"}, "Acetylcholinesterase [6]": {"target": "T1, Acetylcholinesterase (Rattus norvegicus, UniProt P37136)", "T1 sequence (P37136 whole entry)": "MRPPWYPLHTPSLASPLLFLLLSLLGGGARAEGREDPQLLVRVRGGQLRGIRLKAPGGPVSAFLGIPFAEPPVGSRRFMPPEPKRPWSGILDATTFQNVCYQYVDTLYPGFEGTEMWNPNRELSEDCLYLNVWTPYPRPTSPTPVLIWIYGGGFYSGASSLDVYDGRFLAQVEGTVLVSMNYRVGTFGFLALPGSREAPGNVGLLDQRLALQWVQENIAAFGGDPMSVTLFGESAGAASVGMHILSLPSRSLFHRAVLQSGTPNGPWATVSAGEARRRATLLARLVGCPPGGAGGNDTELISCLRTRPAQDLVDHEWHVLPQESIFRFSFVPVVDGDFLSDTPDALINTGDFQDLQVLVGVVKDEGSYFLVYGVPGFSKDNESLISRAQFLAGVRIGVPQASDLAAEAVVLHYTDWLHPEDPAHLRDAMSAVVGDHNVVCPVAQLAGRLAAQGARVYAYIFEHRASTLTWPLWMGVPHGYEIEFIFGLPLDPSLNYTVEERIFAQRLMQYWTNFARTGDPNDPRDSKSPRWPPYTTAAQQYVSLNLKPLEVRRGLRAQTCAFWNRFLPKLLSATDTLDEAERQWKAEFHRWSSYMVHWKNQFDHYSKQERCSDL", "test": "Inhibition of rat brain AChE using acetylthiocholine iodide as substrate measured after 8 mins in presence of BChE inhibitor ethopropazine by Ellman's method"}, "Butyrylcholinesterase": {"target": "Butyrylcholinesterase (Rattus norvegicus, UniProt Q9JKC1)", "sequence (Q9JKC1 whole entry)": "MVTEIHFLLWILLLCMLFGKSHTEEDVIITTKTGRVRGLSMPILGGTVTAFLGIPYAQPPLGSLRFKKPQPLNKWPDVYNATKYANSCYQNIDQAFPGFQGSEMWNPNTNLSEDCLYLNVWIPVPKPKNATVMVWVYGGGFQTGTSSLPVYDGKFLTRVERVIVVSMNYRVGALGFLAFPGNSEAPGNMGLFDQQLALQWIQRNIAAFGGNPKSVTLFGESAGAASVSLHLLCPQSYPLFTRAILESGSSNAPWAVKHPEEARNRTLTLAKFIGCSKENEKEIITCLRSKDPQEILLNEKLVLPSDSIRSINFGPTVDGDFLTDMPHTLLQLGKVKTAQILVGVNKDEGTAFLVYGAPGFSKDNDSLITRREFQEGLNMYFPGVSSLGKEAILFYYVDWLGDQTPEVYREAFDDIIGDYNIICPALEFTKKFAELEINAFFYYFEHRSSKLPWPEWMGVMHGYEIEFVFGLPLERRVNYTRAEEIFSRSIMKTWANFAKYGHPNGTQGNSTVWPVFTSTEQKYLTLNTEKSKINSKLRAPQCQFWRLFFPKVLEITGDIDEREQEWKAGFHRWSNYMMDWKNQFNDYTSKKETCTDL", "test": "Inhibition of rat serum BChE using butyrylthiocholine iodide as substrate measured after 8 mins in presence of AChE inhibitor BW284c51 by Ellman's method"}, "Acetylcholinesterase [7]": {"target": "T1, Acetylcholinesterase", "test": "Inhibition of rat brain AChE"}}}
{"smiles": "O=C(CCCCc1cn(-c2ccnc3cc(Cl)ccc23)nn1)N1CCN(c2c3c(nc4cc(Cl)ccc24)CCCC3)CC1", "values": [{"measurement": "IC50", "setting": "Acetylcholinesterase [1]", "result": 18.7, "unit": "µM"}, {"measurement": "IC50", "setting": "Cholinesterase [2]", "result": "> 100", "unit": "µM"}]}
{"smiles": "CCN(CC)c1ccc(/C=C/c2cc(N3CCCCC3)c3ccccc3n2)cc1", "values": [{"measurement": "IC50", "setting": "Acetylcholinesterase [3]", "result": 64.1, "unit": "µM"}, {"measurement": "IC50", "setting": "Cholinesterase [4]", "result": 0.2, "unit": "µM"}]}
{"smiles": "Clc1ccc2c(-n3cc(CCCN4CCN(c5c6c(nc7ccccc57)CCCC6)CC4)nn3)ccnc2c1", "values": [{"measurement": "IC50", "setting": "Acetylcholinesterase [1]", "result": 4.89, "unit": "µM"}, {"measurement": "IC50", "setting": "Cholinesterase [2]", "result": 3.61, "unit": "µM"}]}
{"smiles": "Clc1ccc2c(-n3cc(CCCCN4CCN(c5c6c(nc7ccccc57)CCCC6)CC4)nn3)ccnc2c1", "values": [{"measurement": "IC50", "setting": "Acetylcholinesterase [1]", "result": 10, "unit": "µM"}, {"measurement": "IC50", "setting": "Cholinesterase [2]", "result": 66.7, "unit": "µM"}]}
{"smiles": "O=C(CCCCc1cn(-c2ccnc3cc(Cl)ccc23)nn1)NCCNc1c2c(nc3cc(Cl)ccc13)CCCC2", "values": [{"measurement": "IC50", "setting": "Acetylcholinesterase [1]", "result": "> 100", "unit": "µM"}, {"measurement": "IC50", "setting": "Cholinesterase [2]", "result": 6.06, "unit": "µM"}, {"measurement": "Selectivity ratio", "setting": "[5]", "result": 2}]}
{"smiles": "Clc1ccc2c(-n3cc(CCCCN4CCN(c5c6c(nc7cc(Cl)ccc57)CCCC6)CC4)nn3)ccnc2c1", "values": [{"measurement": "IC50", "setting": "Acetylcholinesterase [1]", "result": 19.6, "unit": "µM"}, {"measurement": "IC50", "setting": "Cholinesterase [2]", "result": "> 100", "unit": "µM"}]}
{"smiles": "O=C(CCCCc1cn(-c2ccnc3cc(Cl)ccc23)nn1)N1CCN(c2c3c(nc4ccccc24)CCCC3)CC1", "values": [{"measurement": "IC50", "setting": "Acetylcholinesterase [1]", "result": 11.1, "unit": "µM"}, {"measurement": "IC50", "setting": "Cholinesterase [2]", "result": "> 100", "unit": "µM"}]}
{"smiles": "C1=CCc2c(nc3ccccc3c2NCCCCCCCCNc2ccnc3ccccc23)C1", "values": [{"measurement": "IC50", "setting": "Acetylcholinesterase [6]", "result": 0.0088, "unit": "µM"}, {"measurement": "IC50", "setting": "Butyrylcholinesterase", "result": 0.126, "unit": "µM"}]}
{"smiles": "C#CCN(C)Cc1ccc(OC(=O)N(C)C)c2ncccc12", "values": [{"measurement": "IC50", "setting": "Acetylcholinesterase [7]", "result": 0.5, "unit": "µM"}]}
{"smiles": "CN(CCCC(=O)N1CCN(c2c3c(nc4ccccc24)CCCC3)CC1)Cc1cn(-c2ccnc3cc(Cl)ccc23)nn1", "values": [{"measurement": "IC50", "setting": "Acetylcholinesterase [1]", "result": "> 100", "unit": "µM"}, {"measurement": "IC50", "setting": "Cholinesterase [2]", "result": 61.1, "unit": "µM"}]}
